Where two headings read alike, the source gives them in different places.
What was measured:
[1] = system: Salmonella Typhimurium TA98; assay: Mutagenicity, Ames test; conditions: for Number of colonies: ± SD
Procedure: (§1) The mutagenic potential of the tested gemini QAS was determined using the Ames test[83] using Salmonella Typhimurium TA98 and Salmonella Typhimurium TA100 with defects in histidine biosynthesis. The culture of S. Typhimurium TA98 and S. Typhimurium TA100 was incubated with shaking at 37 °C for 18 h, centrifuged (3000 rpm, 5 min) and OD = 1.5 was determined, at a wavelength of λ = 590 nm. The agar was dissolved and cooled to 42 °C. […] The media were incubated for 48 h at 37 °C. The positive control for the S. Typhimurium TA98 strain was acriflavin (100 μg/ml), and for the S. Typhimurium TA100 strain, sodium azide (15 μg/ml). The negative control was the culture without tested compound and with NaCl (0,9%). After incubation, the colonies were counted and the mutagenicity index (MR) was determined—the ratio of the number of revertants resulting from the mutagenic effect of the tested compound to the number of spontaneous revertants. Experiment was performed in three repetitions.

sheep erythrocytes = assay: Hemolysis test; format: cell-based; conditions: 1.5 h, 37 °C; for Concentration up to which no hemolysis was caused: sheep erythrocytes; for Hemolytic effect on sheep erythrocytes: tested 2.5–1280 µM
Procedure: The hemolysis test was performed based on the Obłąk et al.[80] method with modification. Sheep blood (5 cm^3) was centrifuged (699 rcf, 15 min), washed several times with PBS buffer (pH 7.4), and suspended in PBS. […] The positive control was 1% SDS and the negative control was PBS. The plates were incubated for 1.5 h at 37 °C. After incubation, the plates were centrifuged (699 rcf, 15 min) and the supernatant was applied to a new titration plate. Absorbance was measured at λ = 540 nm (BioTek 800 TS Absorbance Reader). The experiment was performed in 4 repetitions.

[2] = system: Salmonella Typhimurium TA100; conditions: for Number of colonies: ± SD
Procedure: as §1

[3] = system: C. albicans ATCC 10231 biofilm; assay: Biofilm eradication (crystal violet); format: cell-based, Candida albicans; conditions: 24 h biofilm, 4 h exposure, concentration not given (tested 20–1280 µM)
Procedure: The culture of C. albicans ATCC 10231 was incubated with shaking for 18 h at 37 °C, centrifuged (1000 rcf, 5 min), and the pellet was suspended in PBS (pH 7.4) until OD = 0.8. 100 µl of the obtained culture was spotted into the wells of a 96-well plate and it was incubated at 37 °C for 24 h. After incubation, the culture was removed from the wells and rinsed with sterile distilled water. Then, 100 µl of the tested gemini QAS at concentrations of 20–1280 µM were added and incubated for 4 h at 37 °C. After this time, the compounds were removed, and the plates were rinsed with sterile distilled water and placed in an oven (60 °C, 20 min) to strengthen the formed biofilm. Then 100 µl of crystal violet (0.1%) was added and stained for 5 min. The plates were rinsed with sterile distilled water until there were no traces of purple in the rinse water, and 150 µl of washing mixture (1% SDS, 50 mmol HCl, 100% isopropanol) was added. Absorbance was measured at λ = 590 nm (BioTek 800 TS Absorbance Reader). The negative control was the medium, while the positive control was the culture wells to which the tested gemini QAS had not been added. The experiment was carried out based on a modification of the method of Obłąk et al.. The tested samples were performed in 3 repetitions.

C. albicans ATCC 10231 [4] = assay: Adhesion of C. albicans to silicone surface; format: cell-based, Candida albicans
Procedure: (§2) The effect of gemini QAS on the adhesion of C. albicans ATCC 10231 was determined using a modification of the method of Obłąk et al.. […] After incubation, the culture was centrifuged (1000 rcf, 5 min), and the resulting pellet was suspended in PBS (pH 7.4) until OD = 0.8 (λ = 590 nm). • In the case of testing the polystyrene surface, 100 µl of tested gemini QAS at concentrations of 20–1280 µM was added to the wells of a 96-well titration plate, incubated for 2 h at 37 °C, rinsed with sterile distilled water, and then spotted with 100 µl of the obtained culture and incubated at 37 °C for 4 h. After this time, the culture was removed, the plates were rinsed with sterile distilled water and placed in an oven (60 °C, 20 min). Then, crystal violet (0.1%) was added to the wells of the titration plate, stained for 5 min and rinsed with sterile distilled water until all traces of violet were removed from the rinsed water. Then the washing mixture (1% SDS, 50 mmol HCl, 100% isopropanol) was added. The absorbance of the samples was read using a spectrophotometer (BioTek 800 TS Absorbance Reader) at λ = 590 nm. The positive control was the culture wells to which the tested gemini QAS were not added, and the negative control was the medium. The experiment was performed in 3 repetitions. • When the tested surface was stainless steel (round washers Ø 0.4 cm), silicone (0.5 cm long fragments of Foley catheters) or glass (1 cm^2 coverslips), the tested materials were incubated for 2 h at 37 °C with shaking (100 rpm) in the presence of the tested gemini QAS at concentrations of 80–640 µM. Then, the materials were rinsed with sterile distilled water, transferred to tubes with culture and incubated for 4 h at 37 °C with shaking (100 rpm). After incubation, the materials were rinsed with sterile distilled water. […] Next, the washing mixture (1% SDS, 50 mmol HCl, 100% isopropanol) was added and the absorbance of the samples was read using a spectrophotometer (BioTek 800 TS Absorbance Reader) at λ = 590 nm. […] After this time, the colonies growing on the plates were counted. […]

C. albicans ATCC 10231 [5] = assay: Adhesion of C. albicans to stainless steel surface; format: cell-based, Candida albicans; conditions: concentration not stated (tested 80–640 µM)
Procedure: as §2

[6] = concentration not stated (tested 80–640 µM)

SMILES	Mutagenicity ratio (MR) ([1]; TA98, ¼ MIC)	Number of colonies ([1]; TA98, ¼ MIC)	Mutagenicity ratio (MR) ([1]; TA98, ½ MIC)	Number of colonies ([1]; TA98, ½ MIC)	Concentration up to which no hemolysis was caused (sheep erythrocytes) [µM]	Mutagenicity ratio (MR) ([2]; TA100, ¼ MIC)	Number of colonies ([2]; TA100, ¼ MIC)	Mutagenicity ratio (MR) ([2]; TA100, ½ MIC)	Number of colonies ([2]; TA100, ½ MIC)	Destruction (eradication) of formed C. albicans biofilm [3]	Reduction of adhesion of C. albicans cells to silicone (C. albicans ATCC 10231 [4]; 640 µM)	Inhibition of adhesion of C. albicans to stainless steel (C. albicans ATCC 10231 [5])	Reduction of adhesion of C. albicans cells to silicone (C. albicans ATCC 10231 [4]; [6])	Hemolytic effect on sheep erythrocytes (sheep erythrocytes)	Hemolytic effect on sheep erythrocytes (sheep erythrocytes; listed as dimethylcarbonate with 12-carbon alkyl chains)
CCCCCCCCCCCCCCCC(=O)N(CCCN(CCC[N+](C)(C)C)C(=O)CCCCCCCCCCCCCCC)CCC[N+](C)(C)C [2xC16LaG3]	1.12	30.7 ± 1.15	1.35	37.0 ± 3.46	≤ 40	0.99	197.7 ± 1.53	1.06	213.0 ± 4.24	approximately 20%	completely reduced the adhesion				
CCCCCCCCCCCC(=O)N(CCCN(CCC[N+](C)(C)C)C(=O)CCCCCCCCCCC)CCC[N+](C)(C)C [2xC12BrG3]	0.82	18.7 ± 2.31	7.67	174.5 ± 9.19	≤ 20	0.95	265.0 ± 7.07	1.23	308.3 ± 6.87	approximately 80%					
CCCCCCCCCCCCCCCC(=O)N(CCCN(CCC[N+](C)(C)C)C(=O)CCCCCCCCCCCCCCC)CCC[N+](C)(C)C [2xC16MeCO3G3, dimethyl{{3-[N-(3-{N-[3-(dimethylammonium)propyl]hexadecylamido}propyl}hexadecylamido}propyl}}ammonium dimethylcarbonate]	1.55	35.3 ± 5.03	1.85	42.0 ± 2.16	≤ 80	1.43	398.0 ± 2.83	1.76	490.5 ± 3.54	approximately 80%		approximately 50%	80–90%		
CCCCCCCCCCCCCC(=O)N(CCCN(CCC[N+](C)(C)C)C(=O)CCCCCCCCCCCCC)CCC[N+](C)(C)C [2xC14BrG3]	1.08	29.7 ± 2.08	1.75	48.0 ± 2.83		0.99	199.0 ± 1.41	0.98	197.0 ± 0.71	approximately 80%					
CCCCCCCCCCCCCCCC(=O)N(CCCN(CCC[N+](C)(C)C)C(=O)CCCCCCCCCCCCCCC)CCC[N+](C)(C)C [2xC16BrG3]	1.51	34.3 ± 5.69	1.85	42.0 ± 5.57	≤ 80		380.0 ± 1.37	1.50		approximately 80%		approximately 60%			
CCCCCCCCCCCC(=O)N(CCCN(CCC[N+](C)(C)C)C(=O)CCCCCCCCCCC)CCC[N+](C)(C)C [2xC12MeCO3G3, dimethyl{{3-[N-(3-{N-[3-(dimethylammonium)propyl]dodecylamido}propyl}dodecylamido}propyl}}ammonium dimethylcarbonate]	1.57	35.8 ± 2.63	2.59	59.0 ± 2.65		0.87	243.0 ± 8.49	1.57	438.0 ± 2.83	approximately 40%		approximately 60%	80–90%	did not cause hemolysis	no hemolytic effect

From PMC11187217, “Anti-adhesive, anti-biofilm and fungicidal action of newly synthesized gemini quaternary ammonium salts” (Scientific Reports, 2024)
